Measurements reported in patent US7148013B2, “Complex of Hepatitis B virus polymerase with p11 and method for controlling movement of the complex in HepG2 cell” (Korea Institute of Science and Technology, priority 2002, dated 2006).

Test system: HBVPol/p11 complex
Assay: Immunofluorescent experiment and confocal microscopy: intracellular location of HBVPol/p11 complex in HepG2 cells co-delivered with HBVPol and p11
Assay type: cell-based, human
Settings: HepG2 cell co-delivered with HBVPol and p11
Method: HepG2 was grown on a chamber slide charged with DMEM (supplemented with 0.1 mM non-essential amino acids and 10% FBS, culturing condition: 37° C., moisturized with a mixture of 95:5% (v/v) air and CO2), and Effectene (Qiagen) was used to deliver genes into the cell. Cells treated with EGTA and to which the gene was delivered, were washed with PBS and fixed with 100% methanol at −20° C. for 15 minutes. The slide was treated with a blocking solution (1% goat serum/PBS) at room temperature for 30 minutes and then reacted with anti-Myc rabbit (1:200) antibody against p11, anti-Flag rabbit (1:200) antibody against HBVPol, or anti-PML mouse (1:200) antibody at 4° C. for one day.
After reaction, the cells were reacted with anti-rabbit or anti-mouse goat secondary antibody, to which rhodamine or fluorscein isothiocyanate was attached, at 37° C. and then a coverslip was attached thereto with mounting solution. […]

Structure (SMILES) | intracellular location of HBVPol and p11 (30 uM for 24 hours, FIG. 5b) | intracellular location of HBVPol and p11 (0.5 mM for 48 hours, FIG. 5a)
CC(C)[C@@H]1NC(=O)[C@H](C)OC(=O)[C@@H](C(C)C)NC(=O)[C@@H](C(C)C)OC(=O)[C@H](C(C)C)NC(=O)[C@H](C)OC(=O)[C@@H](C(C)C)NC(=O)[C@@H](C(C)C)OC(=O)[C@H](C(C)C)NC(=O)[C@H](C)OC(=O)[C@@H](C(C)C)NC(=O)[C@@H](C(C)C)OC1=O [valinomycine] | HBVPol and p11 remained in the cytoplasm of the cell | –
O=C(O)CN(CCOCCOCCN(CC(=O)O)CC(=O)O)CC(=O)O [EGTA] | – | most of HBVPol and p11 migrated into the nucleus of the cell
